From patent publication EP0642531B1, “MONOMER AND DIMER PEPTIDES, UTILIZATION AS CYTOPROTECTOR AGENTS AND PREPARATION METHOD” (INSTITUT DES VAISSEAUX ET DU SANG, priority 1992, dated 1997)
Where no end group is shown, it is not given here.

How the values were obtained:
[1] = test system: mégacaryocytopoïèse in vivo; experiment: Megakaryocytopoiesis in vivo in normal mice (marrow and blood counts); conditions: souris Balb/c, 40 µg/kg s.c. twice daily for 4 days, sampled day 2 after last injection; mean ± SEM
Protocol: L'effet du dodécapeptide de l'exemple 1 sur la mégacaryocytopoïèse in vivo a été testé sur des souris normales selon une méthode décrite par HAN et al., dans l'article C.R. Acad. Sci. Paris, (1991), 313, Série III, 553-558 précité. Chaque groupe contient 5-10 souris Balb/c. Le peptide est injecté par voie sous-cutanée deux fois par jour pendant 4 jours aux concentrations de 1 µg et 5 µg par souris pour chaque administration. Les échantillons de moëlle et/ou de sang ont été prélevés au jour J2 qui suit la dernière injection.
Les souris ont été tuées par dislocation cervicale. Les cellules médullaires ont été obtenues à partir des fémurs et le sang a été obtenu par ponction cardiaque. Les cellules médullaires à la concentration de 2 x 10^5 cellules mononucléées par ml ont été remises en culture en cinq exemplaires en présence de sérum de porc aplasique pendant une semaine pour tester le nombre de progéniteurs mégacaryocytaires (CFU-MK). Le nombre des mégacaryocytes a été évalué sur des cellules médullaires non cultivées mais ensemencées dans des boîtes de culture après obtention à partir des fémurs. Le nombre de plaquettes, de globules blancs et le taux d'hémoglobine ont été mesurés en utilisant un compteur hématopoiétique automatique. […]

CAM de poulet = conditions: inhibition of angiogenesis in chicken CAM; cited from earlier work
[2] = test system: mégacaryocytopoièse humaine; conditions: cited from earlier work
cellules HEL = conditions: prior-art comparators; cited from earlier work

For NGRKICLDLEAP [exemple 1], the “Sang H (hémoglobine)” value [1] was 15,2±0,8 g/100 ml and the “Sang L (leucocytes)” value [1] was 2,80±0,4 10^3/µl.

For “C-41: peptide constitué par les 41 derniers aminoacides (i.e. 30-70) de l'extrémité C-terminale du pF4 (IKAGPHCPTAQLIATLKNGRKICLDLQAPLYKKIIKKLLES; Platelet factor 4; UniProt P02776 61-101, looked up, fragment)”, the anti-angiogénèse (CAM de poulet) is listed as “propriétés anti-angiogénèse”.

In the case of “C-13: peptide constitué par les 13 derniers aminoacides (i.e. 58-70) de l'extrémité C-terminale du pF4 (PLYKKIIKKLLES; Platelet factor 4; UniProt P02776 89-101, looked up, fragment)”, the “effet sur la mégacaryocytopoïèse” value ([2]; in vitro) is listed as “aucun effet” and the anti-angiogénèse (CAM de poulet) is listed as “propriétés anti-angiogénèse”.

In the case of “C-24: peptide constitué par les 24 derniers aminoacides (i.e. 47-70) de l'extrémité C-terminale du pF4 (NGRKICLDLQAPLYKKIIKKLLES; Platelet factor 4; UniProt P02776 78-101, looked up, fragment)”, the “dose inhibiting mégacaryocytopoièse humaine in vitro” value ([2]; relatively high dose) is given as roughly 25 µg/mL, the “maturation des cellules HEL” value (cellules HEL) is given as “limitent la maturation” and the “prolifération des cellules HEL” value (cellules HEL) is given as “n'agissent pas sur leur prolifération”.
